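Each compound was tested at five concentrations against cells in 96-well plates for 48 hours. The concentration for 50% growth inhibition is given as GI50.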 Active and inactive are the calls of the source. Rule as the data show it: active = GI50 up to about 1.1 µM and inactive = higher.
Columns and labels:
Assay in all cases: NCI tumour cell line growth inhibition, 48 h
RPMI-8226 = system: RPMI-8226
786-0 = system: 786-0
U-251 = system: U-251
SK-MEL-5 = system: SK-MEL-5
NCI-H226 = system: NCI-H226
HOP-62 = system: HOP-62
HCT-116 = system: HCT-116
CAKI-1 = system: CAKI-1
SNB-19 = system: SNB-19
MDA-N = system: MDA-N
SK-MEL-2 = system: SK-MEL-2
MOLT-4 = system: MOLT-4
A498 = system: A498
K562 = system: K562
MDA-MB-435 = system: MDA-MB-435
SK-OV-3 = system: SK-OV-3
SF-539 = system: SF-539
CCRF-CEM = system: CCRF-CEM
OVCAR-4 = system: OVCAR-4
RXF 393 = system: RXF 393

Row | SMILES | GI50 (RPMI-8226) | GI50 (786-0) | GI50 (U-251) | GI50 (SK-MEL-5) | GI50 (NCI-H226) | GI50 (HOP-62) | GI50 (HCT-116) | GI50 (CAKI-1) | GI50 (SNB-19) | GI50 (MDA-N) | GI50 (SK-MEL-2) | GI50 (MOLT-4) | GI50 (A498) | GI50 (K562) | GI50 (MDA-MB-435) | GI50 (SK-OV-3) | GI50 (SF-539) | GI50 (CCRF-CEM) | GI50 (OVCAR-4) | GI50 (RXF 393)
1 | O=C(O)CCCSc1ccccc1 | > 100 µM (inactive) | > 100 µM (inactive) | > 100 µM (inactive) | > 100 µM (inactive) | > 100 µM (inactive) | > 100 µM (inactive) | > 100 µM (inactive) | > 100 µM (inactive) | > 100 µM (inactive) | > 100 µM (inactive) | > 100 µM (inactive) | > 100 µM (inactive) | > 100 µM (inactive) | > 100 µM (inactive) | > 100 µM (inactive) | > 100 µM (inactive) | > 100 µM (inactive) | > 100 µM (inactive) | > 100 µM (inactive) | > 100 µM (inactive)
2 | COC1=CC(=O)c2c(ccc3ncnc(N)c23)C1=O | 1.45 µM (inactive) | 1.78 µM (inactive) | 1.74 µM (inactive) | 1.64 µM (inactive) | 2.2 µM (inactive) | 3.56 µM (inactive) | 1.77 µM (inactive) | 1.36 µM (inactive) | 2.38 µM (inactive) | 0.288 µM (active) | 3.03 µM (inactive) | 0.573 µM (active) | 2.22 µM (inactive) | 0.659 µM (active) | 0.233 µM (active) | 6.28 µM (inactive) | 1.61 µM (inactive) | 0.665 µM (active) | 0.561 µM (active) | 1.79 µM (inactive)
3 | C/C=C(\C)c1cc(=O)c2c(C)cc3c(c2o1)C(=O)c1c(O)c(C2CC(C)(N(C)C)C(OC(C)=O)C(C)O2)cc(C2CC(N(C)C)C(O)C(C)O2)c1C3=O (stereo not given) | 1.08 µM (active) | 0.358 µM (active) | 0.49 µM (active) | 0.625 µM (active) | 1.31 µM (inactive) | 0.891 µM (active) | 0.185 µM (active) | 0.265 µM (active) | 1.52 µM (inactive) | 1.18 µM (inactive) | 1.22 µM (inactive) | 0.372 µM (active) | 1.48 µM (inactive) | 0.652 µM (active) | 1.03 µM (active) | 1.95 µM (inactive) | 0.574 µM (active) | 3.12 µM (inactive) | 1.48 µM (inactive) | 0.505 µM (active)
4 | CCOC(=O)C(NC(=O)CC)(Nc1ccc(F)c(Cl)c1)C(F)(F)F (stereo not given) | > 63.2 µM (inactive) | > 100 µM (inactive) | > 100 µM (inactive) | > 67.6 µM (inactive) | > 100 µM (inactive) | > 100 µM (inactive) | > 100 µM (inactive) | > 100 µM (inactive) | > 100 µM (inactive) | > 100 µM (inactive) | > 70 µM (inactive) | > 74.8 µM (inactive) | > 100 µM (inactive) | > 29.2 µM (inactive) | > 92.9 µM (inactive) | > 100 µM (inactive) | > 100 µM (inactive) | 35.6 µM (inactive) | > 100 µM (inactive) | > 100 µM (inactive)
5 | N=C(N)n1nc2c(c1O)CCCC2 | > 100 µM (inactive) | > 100 µM (inactive) | > 100 µM (inactive) | > 100 µM (inactive) | > 100 µM (inactive) | > 100 µM (inactive) | > 100 µM (inactive) | > 100 µM (inactive) | > 100 µM (inactive) | > 100 µM (inactive) | > 100 µM (inactive) | > 100 µM (inactive) | 8.22 µM (inactive) | > 100 µM (inactive) | > 100 µM (inactive) | > 100 µM (inactive) | > 100 µM (inactive) | > 100 µM (inactive) | > 100 µM (inactive) | > 100 µM (inactive)
6 | CC1(C)CCCC2CC2CCC(C)(C)C1=O (stereo not given) | 25.2 µM (inactive) | 28.8 µM (inactive) | 19.1 µM (inactive) | 42.9 µM (inactive) | 43.8 µM (inactive) | > 100 µM (inactive) | 78.2 µM (inactive) | > 100 µM (inactive) | > 100 µM (inactive) | 29.5 µM (inactive) | 31.8 µM (inactive) | 29.2 µM (inactive) | > 100 µM (inactive) | 17.8 µM (inactive) | 39.5 µM (inactive) | > 100 µM (inactive) | > 100 µM (inactive) | 15.7 µM (inactive) | > 100 µM (inactive) | 27.4 µM (inactive)
7 | CC1(C)N=C(N)N=C(N)N1c1cccc(C(=O)Nc2ccc(S(=O)(=O)F)cc2)c1 | > 100 µM (inactive) | > 100 µM (inactive) | > 100 µM (inactive) | > 100 µM (inactive) | > 100 µM (inactive) | > 100 µM (inactive) | > 100 µM (inactive) | > 100 µM (inactive) | > 100 µM (inactive) | > 100 µM (inactive) | > 100 µM (inactive) | > 100 µM (inactive) | > 100 µM (inactive) | > 100 µM (inactive) | > 100 µM (inactive) | > 100 µM (inactive) | > 100 µM (inactive) | > 100 µM (inactive) | > 100 µM (inactive) | > 100 µM (inactive)
8 | CC(C)(C)OC(=O)CC(NC(=O)OC(C)(C)C)C(=O)Oc1ccc([N+](=O)[O-])cc1 (stereo not given) | > 100 µM (inactive) | > 100 µM (inactive) | > 100 µM (inactive) | 78.7 µM (inactive) | > 100 µM (inactive) | > 100 µM (inactive) | > 100 µM (inactive) | > 100 µM (inactive) | > 100 µM (inactive) | > 100 µM (inactive) | > 100 µM (inactive) | > 100 µM (inactive) | > 100 µM (inactive) | > 100 µM (inactive) | > 100 µM (inactive) | 29.9 µM (inactive) | > 100 µM (inactive) | > 100 µM (inactive) | > 100 µM (inactive) | > 100 µM (inactive)
9 | NC(=O)C1=C(O)C[C@@H]2CC3Cc4cccc(O)c4C(=O)C3=C(O)[C@]2(O)C1=O (stereo not given in full) | 0.755 µM (active) | 3.24 µM (inactive) | 0.962 µM (active) | 1.36 µM (inactive) | 2.23 µM (inactive) | 3.31 µM (inactive) | 1.8 µM (inactive) | 10.6 µM (inactive) | 1.88 µM (inactive) | 2.9 µM (inactive) | 1.86 µM (inactive) | 1.61 µM (inactive) | 2.74 µM (inactive) | 1.81 µM (inactive) | 10.1 µM (inactive) | 3.69 µM (inactive) | 1.64 µM (inactive) | 0.873 µM (active) | 10.7 µM (inactive) | 1.51 µM (inactive)
10 | C=CCN1CCC(OC(=O)C(O)(/C=C\CC)C2CCCC2)CC1 (stereo not given) | > 100 µM (inactive) | > 100 µM (inactive) | > 100 µM (inactive) | > 100 µM (inactive) | > 100 µM (inactive) | > 100 µM (inactive) | > 100 µM (inactive) | > 100 µM (inactive) | > 100 µM (inactive) | > 100 µM (inactive) | > 100 µM (inactive) | > 100 µM (inactive) | > 100 µM (inactive) | > 100 µM (inactive) | > 100 µM (inactive) | > 100 µM (inactive) | > 100 µM (inactive) | > 100 µM (inactive) | > 100 µM (inactive) | > 100 µM (inactive)

Source: ChEMBL document CHEMBL1201862, “PubChem BioAssay data set” (2004)
